In patent publication US10336734B2, “Inhibitors of ACK1/TNK2 tyrosine kinase” (H. LEE MOFFITT CANCER CENTER AND RESEARCH INSTITUTE, INC., priority 2015, dated 2019):
Structures can show the parent of a compound that is named as a salt.

Legend:
ACK1 [1] = molecular target: T1, ACK1 (Homo sapiens (Human), UniProt Q07912); assay: ACK1 IC50 (RB); format: biochemical
c-Src = c-Src (Homo sapiens (Human), UniProt P12931); assay: c-Src IC50 (RB); format: biochemical
ALK = ALK (Homo sapiens (Human), UniProt Q9UM73); assay: ALK IC50 (RB); format: biochemical
JAK2 = JAK2 (Homo sapiens (Human), UniProt O60674); assay: JAK2 IC50 (RB); format: biochemical
ACK1 [2] = molecular target: T1, ACK1; assay: ACK1 ELISA; format: biochemical; settings: read-out: ACK1 ELISA % inhibition at 10 μM
[3] = test system: histone H4 Y88-phosphorylation; assay: Immunoblot of H4 Y88-phosphorylation in ligand-treated PC cells; format: cell-based; settings: serum and androgen starved PC cells, ligand activated; 5 μM (DHT 10 nM)
Experimental: FIG. 2A through 2C. ACK1 inhibitor (R)-9bMS suppresses epigenetic modification of histone H4 at tyrosine 88.
To assess endogenous H4-phosphorylation, serum and androgen starved PC cells were treated with ligands to activate ACK1. It led to robust H4 Y88-phosphorylation, suppressed upon (R)-9bMS treatment (FIG. 2A). […] Moreover, H4 Y88-phosphorylation was also detected in human CRPCs using mass spectrometry, which was validated by immunoblotting (FIG. 3A-3C).

[4] = test system: non-small cell lung cancer (NSCLC) cell lines; settings: panel of NSCLC cell lines; cited from earlier work
[5] = test system: LNCaP cells expressing constitutively activated ACK1; settings: mouse xenograft model; cited from earlier work
[6] = test system: castration and radioresistant prostate xenograft tumor; settings: in vivo; cited from earlier work

T1 sequence (Q07912 whole entry): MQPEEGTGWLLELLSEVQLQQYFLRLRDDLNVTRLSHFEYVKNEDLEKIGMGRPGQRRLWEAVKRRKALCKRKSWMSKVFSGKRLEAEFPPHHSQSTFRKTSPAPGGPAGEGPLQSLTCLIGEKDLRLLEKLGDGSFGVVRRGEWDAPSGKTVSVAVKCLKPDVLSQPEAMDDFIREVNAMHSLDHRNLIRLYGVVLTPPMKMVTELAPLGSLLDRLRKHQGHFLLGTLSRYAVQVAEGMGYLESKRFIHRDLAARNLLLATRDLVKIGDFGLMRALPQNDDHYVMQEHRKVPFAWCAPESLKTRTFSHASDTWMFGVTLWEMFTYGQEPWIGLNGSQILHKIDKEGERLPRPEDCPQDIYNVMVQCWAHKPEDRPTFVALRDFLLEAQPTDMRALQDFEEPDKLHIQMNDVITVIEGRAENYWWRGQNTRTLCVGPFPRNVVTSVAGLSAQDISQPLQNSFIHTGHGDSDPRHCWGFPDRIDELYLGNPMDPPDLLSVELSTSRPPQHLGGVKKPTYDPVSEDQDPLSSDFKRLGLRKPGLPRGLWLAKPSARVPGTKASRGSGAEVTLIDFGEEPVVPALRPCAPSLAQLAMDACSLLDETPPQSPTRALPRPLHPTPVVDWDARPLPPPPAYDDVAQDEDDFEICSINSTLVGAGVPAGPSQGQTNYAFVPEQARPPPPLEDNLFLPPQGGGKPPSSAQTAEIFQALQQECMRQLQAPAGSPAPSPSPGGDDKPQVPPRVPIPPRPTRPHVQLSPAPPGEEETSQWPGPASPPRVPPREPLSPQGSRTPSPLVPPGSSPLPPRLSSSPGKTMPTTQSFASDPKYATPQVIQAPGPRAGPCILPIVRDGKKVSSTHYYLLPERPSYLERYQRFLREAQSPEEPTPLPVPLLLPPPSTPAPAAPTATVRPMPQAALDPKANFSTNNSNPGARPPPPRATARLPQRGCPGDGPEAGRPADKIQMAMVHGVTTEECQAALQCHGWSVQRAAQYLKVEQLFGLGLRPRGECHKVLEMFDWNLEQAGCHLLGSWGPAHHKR
Chain of c-Src (P12931 whole entry, looked up, species assumed): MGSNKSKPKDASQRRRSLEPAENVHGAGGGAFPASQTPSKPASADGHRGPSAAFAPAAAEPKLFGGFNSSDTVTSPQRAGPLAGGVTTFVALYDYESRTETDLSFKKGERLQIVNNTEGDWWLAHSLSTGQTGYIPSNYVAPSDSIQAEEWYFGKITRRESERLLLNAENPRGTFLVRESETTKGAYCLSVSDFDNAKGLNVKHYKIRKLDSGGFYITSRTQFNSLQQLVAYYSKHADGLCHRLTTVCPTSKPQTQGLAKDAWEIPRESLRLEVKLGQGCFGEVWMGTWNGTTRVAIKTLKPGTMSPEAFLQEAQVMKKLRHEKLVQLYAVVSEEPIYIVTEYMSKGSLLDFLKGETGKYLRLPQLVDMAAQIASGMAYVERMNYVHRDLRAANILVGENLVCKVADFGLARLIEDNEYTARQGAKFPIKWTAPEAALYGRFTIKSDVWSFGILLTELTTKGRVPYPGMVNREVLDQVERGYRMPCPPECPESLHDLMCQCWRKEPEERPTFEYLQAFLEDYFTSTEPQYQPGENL
Chain of ALK (Q9UM73 19-1620, species assumed): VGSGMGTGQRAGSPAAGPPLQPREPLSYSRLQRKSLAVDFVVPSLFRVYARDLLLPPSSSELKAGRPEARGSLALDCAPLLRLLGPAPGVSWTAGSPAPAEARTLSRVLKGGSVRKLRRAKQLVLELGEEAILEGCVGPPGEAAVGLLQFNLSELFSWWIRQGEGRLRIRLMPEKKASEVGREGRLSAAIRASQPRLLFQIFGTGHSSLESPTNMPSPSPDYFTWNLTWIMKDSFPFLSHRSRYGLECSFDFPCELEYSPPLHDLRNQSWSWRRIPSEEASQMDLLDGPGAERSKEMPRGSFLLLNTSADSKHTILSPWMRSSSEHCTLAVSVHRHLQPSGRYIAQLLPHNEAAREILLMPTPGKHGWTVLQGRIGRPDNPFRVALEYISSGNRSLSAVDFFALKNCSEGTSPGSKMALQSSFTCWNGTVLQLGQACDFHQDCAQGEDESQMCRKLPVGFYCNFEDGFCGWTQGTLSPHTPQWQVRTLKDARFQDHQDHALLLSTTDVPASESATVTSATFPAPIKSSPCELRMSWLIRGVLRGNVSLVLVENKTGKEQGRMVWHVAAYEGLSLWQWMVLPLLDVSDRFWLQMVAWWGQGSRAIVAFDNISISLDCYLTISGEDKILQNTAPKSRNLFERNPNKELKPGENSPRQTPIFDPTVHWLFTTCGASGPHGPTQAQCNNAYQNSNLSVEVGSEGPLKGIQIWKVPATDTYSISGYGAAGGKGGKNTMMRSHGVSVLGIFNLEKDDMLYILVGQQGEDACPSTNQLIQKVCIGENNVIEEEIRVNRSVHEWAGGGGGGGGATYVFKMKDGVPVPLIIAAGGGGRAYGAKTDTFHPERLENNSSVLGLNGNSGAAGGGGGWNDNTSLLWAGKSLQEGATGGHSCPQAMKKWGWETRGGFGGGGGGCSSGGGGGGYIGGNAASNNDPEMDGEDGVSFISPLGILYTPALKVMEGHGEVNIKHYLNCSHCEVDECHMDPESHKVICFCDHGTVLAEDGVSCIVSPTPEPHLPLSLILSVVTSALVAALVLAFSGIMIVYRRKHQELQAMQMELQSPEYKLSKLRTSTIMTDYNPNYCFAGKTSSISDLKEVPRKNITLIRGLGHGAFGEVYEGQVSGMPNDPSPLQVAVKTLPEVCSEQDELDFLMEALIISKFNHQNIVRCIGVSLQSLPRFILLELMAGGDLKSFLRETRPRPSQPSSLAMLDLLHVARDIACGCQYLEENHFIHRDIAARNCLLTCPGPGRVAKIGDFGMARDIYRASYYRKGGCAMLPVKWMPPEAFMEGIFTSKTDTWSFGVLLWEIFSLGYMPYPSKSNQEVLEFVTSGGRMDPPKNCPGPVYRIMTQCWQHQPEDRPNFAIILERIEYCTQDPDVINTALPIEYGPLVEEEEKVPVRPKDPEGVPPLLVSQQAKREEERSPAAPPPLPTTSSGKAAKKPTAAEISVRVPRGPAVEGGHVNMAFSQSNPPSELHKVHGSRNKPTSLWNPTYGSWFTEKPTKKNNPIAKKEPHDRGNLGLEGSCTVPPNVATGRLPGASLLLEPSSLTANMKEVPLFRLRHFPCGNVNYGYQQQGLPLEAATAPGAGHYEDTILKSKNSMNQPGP
Chain of JAK2 (O60674 whole entry, species assumed): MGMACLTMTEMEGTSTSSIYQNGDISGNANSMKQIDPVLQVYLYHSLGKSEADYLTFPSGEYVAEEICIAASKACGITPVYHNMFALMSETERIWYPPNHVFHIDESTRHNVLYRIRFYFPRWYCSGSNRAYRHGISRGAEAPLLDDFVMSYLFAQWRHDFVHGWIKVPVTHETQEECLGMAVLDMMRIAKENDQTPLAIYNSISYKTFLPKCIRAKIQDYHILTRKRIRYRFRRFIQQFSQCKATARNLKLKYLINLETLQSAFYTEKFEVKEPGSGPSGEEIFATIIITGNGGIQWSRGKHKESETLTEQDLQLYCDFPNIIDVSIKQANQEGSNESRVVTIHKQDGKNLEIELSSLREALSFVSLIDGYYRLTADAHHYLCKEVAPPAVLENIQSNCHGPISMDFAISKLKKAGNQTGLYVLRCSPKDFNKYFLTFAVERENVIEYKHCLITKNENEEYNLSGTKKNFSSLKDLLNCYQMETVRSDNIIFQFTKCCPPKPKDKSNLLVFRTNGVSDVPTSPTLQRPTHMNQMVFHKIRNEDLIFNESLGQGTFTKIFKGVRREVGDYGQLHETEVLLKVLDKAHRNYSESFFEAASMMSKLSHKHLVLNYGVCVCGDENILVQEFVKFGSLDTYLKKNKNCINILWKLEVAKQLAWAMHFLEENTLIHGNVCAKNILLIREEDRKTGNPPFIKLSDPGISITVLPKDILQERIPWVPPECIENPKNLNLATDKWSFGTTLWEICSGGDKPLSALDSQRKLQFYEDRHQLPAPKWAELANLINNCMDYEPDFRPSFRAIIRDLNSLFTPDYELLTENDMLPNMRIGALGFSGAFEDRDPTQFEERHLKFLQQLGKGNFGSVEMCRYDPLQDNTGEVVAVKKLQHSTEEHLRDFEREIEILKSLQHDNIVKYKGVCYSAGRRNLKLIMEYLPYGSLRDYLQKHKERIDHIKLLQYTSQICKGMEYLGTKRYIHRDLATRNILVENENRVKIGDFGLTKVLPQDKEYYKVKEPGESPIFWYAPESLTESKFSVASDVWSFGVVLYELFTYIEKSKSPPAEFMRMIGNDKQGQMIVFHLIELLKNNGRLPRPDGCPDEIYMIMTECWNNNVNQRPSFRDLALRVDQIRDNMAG

| SMILES | inhibition at 10 µM (ACK1 [2]) [%] | further results |
| --- | --- | --- |
| COc1ccccc1CCNc1nc(Nc2ccc(N3CCN(C)CC3)cc2OC)ncc1Cl [Example 21, 5-Chloro-N^2-[2-methoxy-4-(4-methylpiperazin-1-yl)phenyl]-N^4-(2-methoxyphenethyl)pyrimidine-2,4-diamine] |  | IC50 (ACK1 [1]): 24 nM; IC50 (c-Src): 8250 nM; IC50 (ALK): 2 nM; IC50 (JAK2): 860 nM |
| Cc1ccccc1CCNc1nc(Nc2ccc(N3CCN(C)CC3)cc2)ncc1Cl [Example 16, 5-Chloro-N4-(2-methylphenethyl)-N2-(4-(4-methylpiperazin-1-yl)phenyl)pyrimidine-2,4-diamine] | 91 |  |
| Cc1ccc(CNc2nc(Nc3ccc(N4CCN(C)CC4)cc3)ncc2Cl)o1 [Example 3, 5-Chloro-N4-((5-methylfuran-2-yl)methyl)-N2-(4-(4-methylpiperazin-1-yl)phenyl)-pyrimidine-2,4-diamine] | 90.9 |  |
| C[C@]12CCC(=O)C[C@@H]1CC[C@@H]1[C@@H]2CC[C@]2(C)[C@@H](O)CC[C@@H]12 [DHT] |  | H4 Y88-phosphorylation [3]: remained unaffected |
| CN1CCN(c2ccc(Nc3ncc(Cl)c(NCCc4c(Cl)cccc4Cl)n3)cc2)CC1 [Example 10, 5-Chloro-N4-(2,6-dichlorophenethyl)-N2-(4-(4-methylpiperazin-1-yl)phenyl)pyrimidine-2,4-diamine] | 97 |  |
| CN1CCN(c2ccc(Nc3ncc(Cl)c(NCc4ccco4)n3)cc2)CC1 [Example 1, 5-Chloro-N4-(furan-2-ylmethyl)-N2-(4-(4-methylpiperazin-1-yl)phenyl)pyrimidine-2,4-diamine] | 96 |  |
| COc1cc(N2CCN(C)CC2)ccc1Nc1ncc(Cl)c(NC[C@H]2CCCO2)n1 [Example 26, (R)-5-Chloro-N^2-[2-methoxy-4-(4-methylpiperazin-1-yl)phenyl]-N^4-[(tetrahydrofuran-2-yl)methyl]pyrimidine-2,4-diamine] |  | IC50 (ACK1 [1]): 39 nM; IC50 (c-Src): 16800 nM; IC50 (ALK): 34 nM; IC50 (JAK2): 1080 nM |
| CN1CCN(c2ccc(Nc3ncc(Cl)c(NCCc4ccccn4)n3)cc2)CC1 [Example 15, 5-Chloro-N2-(4-(4-methylpiperazin-1-yl)phenyl)-N4-(2-(pyridin-2-yl)ethyl)pyrimidine-2,4-diamine] | 91.9 |  |
| CN1CCN(c2ccc(Nc3ncc(Cl)c(NCCc4c(F)cccc4Cl)n3)cc2)CC1 [Example 12, 5-Chloro-N4-(2-chloro-6-fluorophenethyl)-N2-(4-(4-methylpiperazin-1-yl)phenyl)pyrimidine-2,4-diamine] | 93 |  |
| CNC(=O)c1ccc(N2C(=S)N(c3ccc(C#N)c(C(F)(F)F)c3)C(=O)C2(C)C)cc1F [enzalutamide] |  | H4 Y88-phosphorylation [3]: remained unaffected |
| CN1CCN(c2ccc(Nc3ncc(Cl)c(NCCc4ccccc4F)n3)cc2)CC1 [Example 13, 5-Chloro-N4-(2-fluorophenethyl)-N2-(4-(4-methylpiperazin-1-yl)phenyl)pyrimidine-2,4-diamine] | 91 |  |
| COc1cc(Nc2c(C#N)cnc3cc(OCCCN4CCN(C)CC4)c(OC)cc23)c(Cl)cc1Cl [bosutinib] |  | cell migration and invasion [4]: inhibit cell migration and invasion; viability [4]: not viability |
| CN1CCC(NC(=O)c2ccc(Nc3ncc(Cl)c(NC[C@H]4CCCO4)n3)cc2F)CC1 [Example 25, (R)-4-((5-chloro-4-(((tetrahydrofuran-2-yl)methyl)amino)pyrimidin-2-yl)amino)-2-fluoro-N-(1-methylpiperidin-4-yl)benzamide] | 86.9 |  |
| Cc1nc(Nc2ncc(C(=O)Nc3c(C)cccc3Cl)s2)cc(N2CCN(CCO)CC2)n1 [Dasatinib] |  | Growth of LNCaP cells expressing constitutively activated ACK1, xenograft [5]: significantly reduced |
| COc1ccccc1CCNc1nc(Nc2ccc(N3CCN(C)CC3)cc2)ncc1Cl [Example 14, 5-Chloro-N4-(2-methoxyphenethyl)-N2-(4-(4-methylpiperazin-1-yl)phenyl)pyrimidine-2,4-diamine] | 98 |  |
| CN1CCN(c2ccc(Nc3ncc(Cl)c(NCC4CCCCO4)n3)cc2)CC1 (stereo not drawn) [Example 4, 5-Chloro-N2-(4-(4-methylpiperazin-1-yl)phenyl)-N4-((tetrahydro-2H-pyran-2-yl)methyl)pyrimidine-2,4-diamine hydrochloride] | 97 |  |
| CN1CCN(c2ccc(Nc3ncc(Cl)c(NCCc4ccccc4)n3)cc2)CC1 [Example 7, 5-chloro-N2-(4-(4-methylpiperazin-1-yl)phenyl)-N4-phenethylpyrimidine-2,4-diamine] | 91.9 |  |
| CN1CCN(C(=O)Cc2ccc(Nc3ncc(Cl)c(NC[C@H]4CCCO4)n3)cc2)CC1 [Example 24, (R)-2-(4-((5-chloro-4-(((tetrahydrofuran-2-yl)methyl)amino)pyrimidin-2-yl)amino)phenyl)-1-(4-methylpiperazin-1-yl)ethan-1-one] | 86.8 |  |
| CN1CCN(c2ccc(Nc3ncc(Cl)c(NCC4CCCN4C)n3)cc2)CC1 (stereo not drawn) [Example 6, 5-Chloro-N2-(4-(4-methylpiperazin-1-yl)phenyl)-N4-((1-methylpyrrolidin-2-yl)methyl)pyrimidine-2,4-diamine tri TFA salt] | 35.6 |  |
| CN1CCN(c2ccc(Nc3ncc(Cl)c(NCCc4ccccc4Cl)n3)cc2)CC1 [Example 11, 5-Chloro-N4-(2-chlorophenethyl)-N2-(4-(4-methylpiperazin-1-yl)phenyl)pyrimidine-2,4-diamine] | 91 |  |
| c1ccc(-c2oc3ncnc(NC[C@@H]4CCCO4)c3c2-c2ccccc2)cc1 [Example 1b] |  | Castration and radioresistant prostate xenograft tumor growth [6]: inhibits |
| CN1CCN(c2ccc(Nc3ncc(Cl)c(NCCc4ccc(Cl)cc4Cl)n3)cc2)CC1 [Example 9, 5-Chloro-N4-(2,4-dichlorophenethyl)-N2-(4-(4-methylpiperazin-1-yl)phenyl)pyrimidine-2,4-diamine] | 36.5 |  |
| CN1CCN(c2ccc(Nc3ncc(Cl)c(NCCCc4ccccc4)n3)cc2)CC1 [Example 8, 5-Chloro-N2-(4-(4-methylpiperazin-1-yl)phenyl)-N4-(3-phenylpropyl)pyrimidine-2,4-diamine] | 85.8 |  |
| CN1CCN(c2ccc(Nc3ncc(Cl)c(NCC4CCCN4)n3)cc2)CC1 (stereo not drawn) [Example 2, 5-Chloro-N2-(4-(4-methylpiperazin-1-yl)phenyl)-N4-(pyrrolidin-2-ylmethyl)pyrimidine-2,4-diamine tri-TFA salt] | 18.3 |  |
| CN1CCN(c2ccc(Nc3ncc(Cl)c(NCC4CCCC4)n3)cc2)CC1 [Example 5, 5-Chloro-N4-(cyclopentylmethyl)-N2-(4-(4-methylpiperazin-1-yl)phenyl)pyrimidine-2,4-diamine] | 97 |  |
| COc1cc(N2CCN(C)CC2)ccc1Nc1ncc(Cl)c(NCCc2c(F)cccc2Cl)n1 [Example 20, 5-Chloro-N^4-(2-chloro-6-fluorophenethyl)-N^2-[2-methoxy-4-(4-methylpiperazin-1-yl)phenyl]pyrimidine-2,4-diamine] |  | IC50 (ACK1 [1]): 27 nM; IC50 (c-Src): 11500 nM; IC50 (ALK): 7 nM; IC50 (JAK2): 1720 nM |
